Our source for the EC50 values is patent publication US20250129070A1, “BIFUNCTIONAL ANDROGEN RECEPTOR COMPOUNDS” (priority 2023, published 2025).

Structures are written as SMILES. Where only a bound is given, the exact number is not on record here.

This assay concerns AR / CBP ternary complex. The experiment in a line: Ternary complex formation assay (sandwich ELISA, AR capture / CBP detection) in VCaP cell lysates. The note with it: 1.5 hours treatment, sandwich ELISA (AR capture, CBP or p300 detection). It counts as cell-based. Here is the method:
Preparation of Mouse Anti-AR Antibody Coated 96 Well Plates
Black MaxiSorp plates: coat with 50 μL of mouse 1/50 diluted AR antibody (Monoclonal Antibody (AR 441 from Thermo Fisher); diluted in phosphate buffered saline (PBS). Spin the liquid to the bottom of the wells, if necessary. Incubate overnight at 4° C. Next day, wash 3 times with 200 μL of TBST. Block with 200 μL of blocking buffer (5% BSA in TBST) at room temperature for 2 hours (BSA: A4503 or A2153 from Sigma). Wash plates 3 times with TBST. Plates are ready for lysates Preparation of dimerizer treated lysates
Culture cells in 96 wells at 50K VCaP cells/well for at least 3 days. Plate in 5% Omega charcoal stripped FBS in total volume of 200 uL. Treat with bifunctional for 1.5 hours by adding 1 μL of 200× stock in DMSO. Aspirate media/compound. Add and pipet-to-mix 70 μL of 1× AlphaLisa Lysis Buffer to each well (Perkin Elmer, AlphaLISA SureFire Ultra, diluted in water). Pipet up and down when adding lysis buffer to disrupt cells. Let lysis proceed for 30 min at 4° C.
Incubate for 1 hour at room temperature. Flick out the lysates. Wash 3 times with TBST. Add 75 μL of rabbit CBP or p300 antibody to each well (diluted 1:5000 in blocking buffer (5% BSA in TBST). CBP antibody: (D6C5) Rabbit mAb #7389; p300 antibody: (D8Z4E) Rabbit mAb #86377. Incubate overnight at 4° C. Wash 3 times with 300 uL TBST, each time on shaker for 5-10 min. Prepare goat anti-rabbit antibody conjugated to HRP (1/100K dilution in blocking buffer) Invitrogen Catalog number: 32260. Add 75 μL of HRP-conjugated goat anti-rabbit antibody. Incubate at room temperature for 1 hour. Flick out the HRP-antibody mixture. Wash 7-8 times with TBST, each time on shaker for 10 min. Later washes try to overflow the wells so that no residual HRP remains bound to the sides of the well. Prepare and add 75 uL/well of QuantaRed Enhance Chemifluorescent HRP Substrate solution. Immediately read fluorescence on BMG ClarioStar (ex: 570/em 585), and repeat the read in 5 minutes and 15 minutes.
Background: ELISA stands for enzyme-linked immunosorbent assay.
By EC50 is commonly meant the concentration that produces a half-maximal response. Higher therefore signals a less potent agent. In the case of `CC(=O)N1CCc2c(c(N3CCCc4cc(-c5cnn(C)c5)c(C)cc43)nn2C2CCN(C(=O)CC3CCN(c4ncc(C(=O)NC5C(C)(C)C(Oc6ccc(C#N)c(Cl)c6)C5(C)C)cn4)CC3)CC2)C1` (stereo not drawn) [Compound 176, 2-[4-[2-[4-[5-acetyl-3-[7-methyl-6-(1-methylpyrazol-4-yl)-3,4-dihydro-2H-quinolin-1-yl]-6,7-dihydro-4H-pyrazolo[4,3-c]pyridin-1-yl]-1-piperidyl]-2-oxo-ethyl]-1-piperidyl]-N-[3-(3-chloro-4-cyano-phenoxy)-2,2,4,4-tetramethyl-cyclobutyl]pyrimidine-5-carboxamide], the EC50 was below 0.001 µM. `CC(=O)N1CCc2c(c(N3CCCc4cc(-c5cnn(C)c5)c(C(F)F)cc43)nn2C2CCN(C(=O)C3CCN(c4ccc(C(=O)NC5C(C)(C)C(Oc6ccc(C#N)c(Cl)c6)C5(C)C)cn4)CC3)CC2)C1` (stereo not drawn) [Compound 115, 6-[4-[4-[5-acetyl-3-[7-(difluoromethyl)-6-(1-methylpyrazol-4-yl)-3,4-dihydro-2H-quinolin-1-yl]-6,7-dihydro-4H-pyrazolo[4,3-c]pyridin-1-yl]piperidine-1-carbonyl]-1-piperidyl]-N-[3-(3-chloro-4-cyano-phenoxy)-2,2,4,4-tetramethyl-cyclobutyl]pyridine-3-carboxamide] yielded an EC50 below 0.001 µM.

`COc1cc(OC2C(C)(C)C(NC(=O)c3ccc(N4CCC5(CCC(n6nc(N7CCCc8cc(-c9cnn(C)c9)c(C(F)F)cc87)c7c6CCN(C(C)=O)C7)CC5)C4)cc3)C2(C)C)ccc1C#N` (stereo not drawn) [Compound 405, 4-[8-[5-acetyl-3-[7-(difluoromethyl)-6-(1-methylpyrazol-4-yl)-3,4-dihydro-2H-quinolin-1-yl]-6,7-dihydro-4H-pyrazolo[4,3-c]pyridin-1-yl]-2-azaspiro[4.5]decan-2-yl]-N-[3-(4-cyano-3-methoxy-phenoxy)-2,2,4,4-tetramethyl-cyclobutyl]benzamide] showed an EC50 of 0.01 to 0.1 µM. On to `CC(=O)N1CCc2c(c(Nc3ccc(-c4cnn(C)c4)cc3F)nn2C2CCN(CCC3CCN(c4ncc(C(=O)NC5C(C)(C)C(Oc6ccc(C#N)c(Cl)c6)C5(C)C)cn4)CC3)C2)C1` (stereo not drawn) [Compound 6, 2-[4-[2-[3-[5-acetyl-3-[2-fluoro-4-(1-methylpyrazol-4-yl)anilino]-6,7-dihydro-4H-pyrazolo[4,3-c]pyridin-1-yl]pyrrolidin-1-yl]ethyl]-1-piperidyl]-N-[3-(3-chloro-4-cyano-phenoxy)-2,2,4,4-tetramethyl-cyclobutyl]pyrimidine-5-carboxamide], for which the EC50 was above 0.1 µM. In turn, `CC(=O)N1CCc2c(c(Nc3ccc(-c4cnn(C)c4)cc3F)nn2C2CCN(C3CCN(c4ncc(C(=O)NC5C(C)(C)C(Oc6ccc(C#N)c(Cl)c6)C5(C)C)cn4)CC3)C2)C1` (stereo not drawn) [Compound 8, 2-[4-[3-[5-acetyl-3-[2-fluoro-4-(1-methylpyrazol-4-yl)anilino]-6,7-dihydro-4H-pyrazolo[4,3-c]pyridin-1-yl]pyrrolidin-1-yl]-1-piperidyl]-N-[3-(3-chloro-4-cyano-phenoxy)-2,2,4,4-tetramethyl-cyclobutyl]pyrimidine-5-carboxamide] returned an EC50 above 0.1 µM.

As to `CC(=O)N1CCc2c(c(N3CCCc4cc(-c5cnn(C)c5)c(C(F)F)cc43)nn2C2CCN(CC3CCN(c4ccc(C(=O)NC5C(C)(C)C(Oc6ccc(C#N)c(Cl)c6)C5(C)C)nn4)CC3)CC2)C1` (stereo not drawn) [Compound 117, 6-[4-[[4-[5-acetyl-3-[7-(difluoromethyl)-6-(1-methylpyrazol-4-yl)-3,4-dihydro-2H-quinolin-1-yl]-6,7-dihydro-4H-pyrazolo[4,3-c]pyridin-1-yl]-1-piperidyl]methyl]-1-piperidyl]-N-[3-(3-chloro-4-cyano-phenoxy)-2,2,4,4-tetramethyl-cyclobutyl]pyridazine-3-carboxamide], the EC50 lay in the range of 0.001 to 0.01 µM.
